{"source": "patent US10329245B2", "about": "“Method for making a prenyl group-substituted tyrosine compound” (King Fahd University of Petroleum and Minerals, priority 2015, dated 2019)", "origin": "cited, not measured here", "tested_on": "AGS (human gastric adenocarcinoma) cells", "details": "AGS cell lines, p<0.01", "note": "Where two headings read alike, the source gives them in different places."}
{"smiles": "CC(=O)N[C@@H](Cc1ccc(O)c(CC=C(C)C)c1)C(=O)O", "note": "[compound 1, (S)-2-Acetamido-3-(4-hydroxy-3-(3-methylbut-2-enyl)phenyl)propanoic acid]", "values": [{"measurement": "cell viability, % of control levels", "setting": "75 μM compound 1 combined with 100 ng/mL TRAIL", "result": "77±7", "unit": "%"}, {"measurement": "cell viability, % of control levels", "setting": "150 μM compound 1 combined with 100 ng/mL TRAIL", "result": "67±5", "unit": "%"}]}
